What was measured:
Assay type in all cases: in vivo
[1] = system: Green Peach Aphid (Myzus persicae); assay: Insecticidal effect on green peach aphid, foliar spray on potted Chinese cabbage (Test Example 1); conditions: 500 ppm liquid chemical, sprayed on Chinese cabbage stalks and leaves, six days after the spraying
Description: Insecticidal Effect on Green Peach Aphid (Myzus persicae)
A Chinese cabbage plant was planted in each of plastic pots with a diameter of 8 cm and a height of 8 cm, and green peach aphids were propagated on the plant, after which the parasites in each pot were counted. A preparation containing each compound of the present invention listed in Tables 2 to 4 or each comparative compound as an active ingredient was dispersed in and diluted with water to obtain a 500 ppm liquid chemical. The stalks and leaves of the potted Chinese cabbage plants were sprayed with the liquid chemical and air-dried, and then the pots were stored in a greenhouse. Six days after the spraying, green peach aphids parasitic on each Chinese cabbage plant were counted and the control efficacy was calculated by the following equation, whereby the insecticidal effect was judged according to the criterion shown below. Control efficacy=100−{(T×Ca)/(Ta×C)}×100 • Ta: number of parasites before spraying in treated group, • T: number of parasites after spraying in treated group, • Ca: number of parasites before spraying in untreated group, • C: number of parasites after spraying in untreated group.

[2] = system: White Peach Scale (Pseudaulacaspis pentagona); assay: Insecticidal effect on white peach scale, sprayed potato tuber (Test Examples 3 and 5); conditions: 100 ppm liquid chemical, potato tuber with first-instar larvae, fourteen days after the treatment
Description: Insecticidal Effect on White Peach Scale (Pseudaulacaspis pentagona)
A preparation containing each compound of the present invention listed in Tables 2 to 4 or each comparative compound as an active ingredient was dispersed in and diluted with water to obtain a 100 ppm liquid chemical. A potato tuber with first-instar larvae of white peach scale as parasites was sprayed with the liquid chemical with a spray gun. Fourteen days after the treatment, the living insects were counted. In the same manner as in Test Example 2, the corrected mortality was calculated and the insecticidal effect was judged.
Insecticidal Effect on White Peach Scale (Pseudaulacaspis pentagona) at a Low Dosage
The same test as in Test Example 3 was carried out except for changing the concentration of the liquid chemical to 30 ppm.

[3] = system: Greenhouse Whitefly (Trialeuroddes vaporariorum); assay: Insecticidal effect on greenhouse whitefly, sprayed tomato leaf (Test Examples 2 and 4); conditions: for Test Example 2: insecticidal effect (corrected mortality): 100 ppm liquid chemical, sprayed tomato leaf, 20 adult whiteflies, four days after the inoculation
Description: Insecticidal Effect on Greenhouse Whitefly (Trialeuroddes vaporariorum)
A preparation containing each compound of the present invention listed in Tables 2 to 4 or each comparative compound as an active ingredient was dispersed in and diluted with water to obtain a 100 ppm liquid chemical. A tomato leaf set in a 20-ml vial with its stalk immersed in water was sprayed with the liquid chemical with a spray gun on a turntable. After air-dryness, the treated leaf was placed in a glass cylinder and inoculated with 20 adult greenhouse whiteflies. After the treatment, the glass cylinder was placed in a greenhouse. Four days after the inoculation, the living insects were counted. The corrected mortality was calculated according to the following equation and the insecticidal effect was judged according to the criterion shown below.
[formula] Criterion for Judgment:
Insecticidal Effect on Greenhouse (Trialeuroddes vaporariorum) at a Low Dosage
The same test as in Test Example 2 was carried out except for changing the concentration of the liquid chemical to 3 ppm.

SMILES | Test Example 1: insecticidal effect (control efficacy) [1] | Test Example 3: insecticidal effect (corrected mortality) [2] | Test Example 2: insecticidal effect (corrected mortality) [3] | Test Example 4: controlling effect at a low dosage (corrected mortality) ([3]; 3 ppm liquid chemical, otherwise same as Test Example 2)
CCC(C)OC(=O)N1C(=O)N(N=Cc2cccnc2)Cc2cc(C(F)(C(F)(F)F)C(F)(F)F)ccc21 (stereo not shown) [compound 21] | A (Control efficacy 100%) | A (Corrected mortality 100%) | A (Corrected mortality 100%) | 
CCCOC(=O)N1C(=O)N(N=Cc2cccnc2)Cc2cc(C(F)(C(F)(F)F)C(F)(F)F)ccc21 [compound 18] | A (Control efficacy 100%) | A (Corrected mortality 100%) | A (Corrected mortality 100%) | 
O=C(c1cccc2ccccc12)N1C(=O)N(N=Cc2cccnc2)Cc2cc(C(F)(C(F)(F)F)C(F)(F)F)ccc21 [compound No. 33] | A (Control efficacy 100%) | A (Corrected mortality 100%) | A (Corrected mortality 100%) | 
CCCC(=O)N1C(=O)N(N=Cc2cccnc2)Cc2cc(C(F)(C(F)(F)F)C(F)(F)F)ccc21 [compound 10] | A (Control efficacy 100%) | A (Corrected mortality 100%) | A (Corrected mortality 100%) | 
O=CN1C(=O)N(N=Cc2cccnc2)Cc2cc(C(F)(C(F)(F)F)C(F)(F)F)ccc21 [compound 7] | A (Control efficacy 100%) | A (Corrected mortality 100%) | A (Corrected mortality 100%) | 
CCC(=O)N1C(=O)N(N=Cc2cccnc2)Cc2cc(C(F)(C(F)(F)F)C(F)(F)F)ccc21 [compound 9] | A (Control efficacy 100%) | A (Corrected mortality 100%) | A (Corrected mortality 100%) | 
CCOCN1C(=O)N(N=Cc2cccnc2)Cc2cc(C(F)(C(F)(F)F)C(F)(F)F)ccc21 [compound 5] | A (Control efficacy 100%) | A (Corrected mortality 100%) | A (Corrected mortality 100%) | 
O=C(c1ccccc1)N1C(=O)N(N=Cc2cccnc2)Cc2cc(C(F)(C(F)(F)F)C(F)(F)F)ccc21 [compound 24] | A (Control efficacy 100%) | A (Corrected mortality 100%) | A (Corrected mortality 100%) | 
CCC(C)C(=O)N1C(=O)N(N=Cc2cccnc2)Cc2cc(C(F)(C(F)(F)F)C(F)(F)F)ccc21 (stereo not shown) [compound 13] | A (Control efficacy 100%) | A (Corrected mortality 100%) | A (Corrected mortality 100%) | 
O=C(c1ccc(Cl)c(Cl)c1)N1C(=O)N(N=Cc2cccnc2)Cc2cc(C(F)(C(F)(F)F)C(F)(F)F)ccc21 [compound 31] | A (Control efficacy 100%) | A (Corrected mortality 100%) | A (Corrected mortality 100%) | 
COC(=O)N1C(=O)N(N=Cc2cccnc2)Cc2cc(C(F)(C(F)(F)F)C(F)(F)F)ccc21 [compound 16] | A (Control efficacy 100%) | A (Corrected mortality 100%) | A (Corrected mortality 100%) | 
CC(C)C(=O)N1C(=O)N(N=Cc2cccnc2)Cc2cc(C(F)(C(F)(F)F)C(F)(F)F)ccc21 [compound 11] | A (Control efficacy 100%) | A (Corrected mortality 100%) | A (Corrected mortality 100%) | 
CCOC(=O)N1C(=O)N(N=Cc2cccnc2)Cc2cc(C(F)(C(F)(F)F)C(F)(F)F)ccc21 [compound 17] | A (Control efficacy 100%) | A (Corrected mortality 100%) | A (Corrected mortality 100%) | 
COc1ccccc1C(=O)N1C(=O)N(N=Cc2cccnc2)Cc2cc(C(F)(C(F)(F)F)C(F)(F)F)ccc21 [compound 29] | A (Control efficacy 100%) | A (Corrected mortality 100%) | A (Corrected mortality 100%) | 
CC(C)OC(=O)N1C(=O)N(N=Cc2cccnc2)Cc2cc(C(F)(C(F)(F)F)C(F)(F)F)ccc21 [compound 19] | A (Control efficacy 100%) | A (Corrected mortality 100%) | A (Corrected mortality 100%) | 
N#CCN1C(=O)N(N=Cc2cccnc2)Cc2cc(C(F)(C(F)(F)F)C(F)(F)F)ccc21 [compound 6] | A (Control efficacy 100%) | A (Corrected mortality 100%) | A (Corrected mortality 100%) | 
O=C(C1CC1)N1C(=O)N(N=Cc2cccnc2)Cc2cc(C(F)(C(F)(F)F)C(F)(F)F)ccc21 [compound 14] | A (Control efficacy 100%) | A (Corrected mortality 100%) | A (Corrected mortality 100%) | 
CCCCOC(=O)N1C(=O)N(N=Cc2cccnc2)Cc2cc(C(F)(C(F)(F)F)C(F)(F)F)ccc21 [compound 20] | A (Control efficacy 100%) | A (Corrected mortality 100%) | A (Corrected mortality 100%) | 
O=C(c1ccc(C(F)(F)F)cc1)N1C(=O)N(N=Cc2cccnc2)Cc2cc(C(F)(C(F)(F)F)C(F)(F)F)ccc21 [compound 27] | A (Control efficacy 100%) | A (Corrected mortality 100%) | A (Corrected mortality 100%) | 
CCN1C(=O)N(N=Cc2cccnc2)Cc2cc(C(F)(C(F)(F)F)C(F)(F)F)ccc21 [compound 2] | A (Control efficacy 100%) | A (Corrected mortality 100%) | A (Corrected mortality 100%) | 
CS(=O)(=O)N1C(=O)N(N=Cc2cccnc2)Cc2cc(C(F)(C(F)(F)F)C(F)(F)F)ccc21 [compound 22] | A (Control efficacy 100%) | A (Corrected mortality 100%) | A (Corrected mortality 100%) | 
COCN1C(=O)N(N=Cc2cccnc2)Cc2cc(C(F)(C(F)(F)F)C(F)(F)F)ccc21 [compound 4] | A (Control efficacy 100%) | A (Corrected mortality 100%) | A (Corrected mortality 100%) | 
CCS(=O)(=O)N1C(=O)N(N=Cc2cccnc2)Cc2cc(C(F)(C(F)(F)F)C(F)(F)F)ccc21 [compound 23] | A (Control efficacy 100%) | A (Corrected mortality 100%) | A (Corrected mortality 100%) | 
O=C(c1cccc(C(F)(F)F)c1)N1C(=O)N(N=Cc2cccnc2)Cc2cc(C(F)(C(F)(F)F)C(F)(F)F)ccc21 [compound 26] | A (Control efficacy 100%) | A (Corrected mortality 100%) | A (Corrected mortality 100%) | 
CC(=O)N1C(=O)N(N=Cc2cccnc2)Cc2ccccc21 [A, 1-acetyl-3-(3-pyridylmethylideneamino)-3,4-dihydro-2(1H)-quinazolinone, reference compound] | A (Control efficacy 100%) | B (Corrected mortality 99-90%) | A (Corrected mortality 100%) | C (Corrected mortality 89-80%)
